Values joined by “and” are separate entries in the source; they are usually repeats but may differ in a detail not shown here. Equal values may be shown once. ± gives the expanded uncertainty stated by the source.

One data set can be described thus: refractive index (Na D-line) (dimensionless); xn = mol fraction of the nth substance listed. The following applies: 293.15 K; 100 kPa; Liquid; Standard Abbe refractometry; x2 = 0.
As for `CC(C)=O` [acetone] + CC(=O)CC(C)C, the refractive index is given as 1.359 ± 0.005.

Take `C[S+](C)[O-]` [dimethyl sulfoxide] + CC(=O)CC(C)C: the refractive index turned out to be 1.48 ± 0.005.

In the case of `C1CCCCC1` [cyclohexane] + CC(=O)CC(C)C, the refractive index was 1.426 ± 0.005.

As for `CC#N` [acetonitrile] + CC(=O)CC(C)C, the refractive index is 1.344 ± 0.005.

Staying with this data set, now noted: 303.15 K; 100 kPa; Liquid; Standard Abbe refractometry; x2 = 0.
In the case of `CC(C)=O` [acetone] + CC(=O)CC(C)C, the refractive index is listed as 1.353 ± 0.005.

`C[S+](C)[O-]` [dimethyl sulfoxide] + CC(=O)CC(C)C: the refractive index was determined as 1.475 ± 0.005.

In the case of `C1CCCCC1` [cyclohexane] + CC(=O)CC(C)C, the refractive index was 1.421 ± 0.005.

As for `CC#N` [acetonitrile] + CC(=O)CC(C)C, the refractive index worked out at 1.339 ± 0.005.

Staying with this data set, now noted: 313.15 K; 100 kPa; Liquid; Standard Abbe refractometry; x2 = 0.
`CC(C)=O` [acetone] + CC(=O)CC(C)C: the refractive index came out at 1.348 ± 0.005.

In the case of `C[S+](C)[O-]` [dimethyl sulfoxide] + CC(=O)CC(C)C, the refractive index amounted to 1.47 ± 0.005.

Regarding `C1CCCCC1` [cyclohexane] + CC(=O)CC(C)C, the refractive index was 1.415 ± 0.005.

Consider `CC#N` [acetonitrile] + CC(=O)CC(C)C, for which the refractive index was 1.334 ± 0.005.

A further data set in a line: refractive index (Na D-line) (dimensionless). The following applies: 293.15 K; 100 kPa; Liquid; Standard Abbe refractometry.
Take `CC#N` [acetonitrile]: the refractive index was found to be 1.344 ± 0.005.

Turning to `CC(=O)CC(C)C` [4-methylpentan-2-one], the refractive index is recorded as 1.396 ± 0.005.

Regarding `CC(C)=O` [acetone], the refractive index is given as 1.359 ± 0.005.

With `C1CCCCC1` [cyclohexane], the refractive index came out at 1.426 ± 0.005.

Take `C[S+](C)[O-]` [dimethyl sulfoxide]: the refractive index was 1.48 ± 0.005 and 1.479 ± 0.005.

The same data set, now with this note: 303.15 K; 100 kPa; Liquid; Standard Abbe refractometry.
Take `CC#N` [acetonitrile]: the refractive index is on record as 1.339 ± 0.005.

`CC(=O)CC(C)C` [4-methylpentan-2-one]: the refractive index worked out at 1.391 ± 0.005.

As for `CC(C)=O` [acetone], the refractive index is on record as 1.353 ± 0.005.

With `C1CCCCC1` [cyclohexane], the refractive index worked out at 1.421 ± 0.005.

As to `C[S+](C)[O-]` [dimethyl sulfoxide], the refractive index came to 1.475 ± 0.005.

Staying with this data set, now noted: 313.15 K; 100 kPa; Liquid; Standard Abbe refractometry.
For `CC#N` [acetonitrile], the refractive index was 1.334 ± 0.005.

Take `CC(=O)CC(C)C` [4-methylpentan-2-one]: the refractive index was determined as 1.387 ± 0.005.

As for `CC(C)=O` [acetone], the refractive index is recorded as 1.348 ± 0.005.

Consider `C1CCCCC1` [cyclohexane], for which the refractive index amounted to 1.415 ± 0.005.

As for `C[S+](C)[O-]` [dimethyl sulfoxide], the refractive index is given as 1.47 ± 0.005.

The next data set can be described thus: xn = mol fraction of the nth substance listed. The following applies: 293.15 K; 100 kPa; Liquid; Frequency=3 MHz; Single path-length method; x2 = 0.
Regarding `CC(C)=O` [acetone] + CC(=O)CC(C)C, the speed of sound is on record as 1184.3 ± 1.4 m/s.

Consider `C[S+](C)[O-]` [dimethyl sulfoxide] + CC(=O)CC(C)C, for which the speed of sound is given as 1504.7 ± 1.4 m/s.

Take `C1CCCCC1` [cyclohexane] + CC(=O)CC(C)C: the speed of sound was 1279.5 ± 1.4 m/s.

`CC#N` [acetonitrile] + CC(=O)CC(C)C: the speed of sound is recorded as 1299.7 ± 1.3 m/s.

Staying with this data set, now noted: 293.15 K; 100 kPa; Liquid; Vibrating tube method; x2 = 0.
Turning to `CC(C)=O` [acetone] + CC(=O)CC(C)C, the mass density came to 790 ± 3 kg/m3.

Turning to `C[S+](C)[O-]` [dimethyl sulfoxide] + CC(=O)CC(C)C, the mass density is 1100 ± 3 kg/m3.

On to `C1CCCCC1` [cyclohexane] + CC(=O)CC(C)C, for which the mass density stood at 779 ± 3 kg/m3.

For `CC#N` [acetonitrile] + CC(=O)CC(C)C, the mass density came to 782 ± 3 kg/m3.

The same data set, now with this note: 303.15 K; 100 kPa; Liquid; Frequency=3 MHz; Single path-length method; x2 = 0.
Consider `CC(C)=O` [acetone] + CC(=O)CC(C)C, for which the speed of sound was determined as 1139.4 ± 1.4 m/s.

Consider `C[S+](C)[O-]` [dimethyl sulfoxide] + CC(=O)CC(C)C, for which the speed of sound is on record as 1471 ± 1.4 m/s.

`C1CCCCC1` [cyclohexane] + CC(=O)CC(C)C: the speed of sound was determined as 1230.1 ± 1.4 m/s.

For the compound `CC#N` [acetonitrile] + CC(=O)CC(C)C, the speed of sound stood at 1258.8 ± 1.3 m/s.

The same data set, now with this note: 303.15 K; 100 kPa; Liquid; Vibrating tube method; x2 = 0.
For `CC(C)=O` [acetone] + CC(=O)CC(C)C, the mass density stood at 779 ± 3 kg/m3.

In the case of `C[S+](C)[O-]` [dimethyl sulfoxide] + CC(=O)CC(C)C, the mass density is 1090 ± 3 kg/m3.

Consider `C1CCCCC1` [cyclohexane] + CC(=O)CC(C)C, for which the mass density turned out to be 769 ± 3 kg/m3.

Consider `CC#N` [acetonitrile] + CC(=O)CC(C)C, for which the mass density is given as 771 ± 3 kg/m3.

The same data set, now with this note: 313.15 K; 100 kPa; Liquid; Frequency=3 MHz; Single path-length method; x2 = 0.
Regarding `CC(C)=O` [acetone] + CC(=O)CC(C)C, the speed of sound was 1094.6 ± 1.4 m/s.

Take `C[S+](C)[O-]` [dimethyl sulfoxide] + CC(=O)CC(C)C: the speed of sound was found to be 1437.4 ± 1.4 m/s.

In the case of `C1CCCCC1` [cyclohexane] + CC(=O)CC(C)C, the speed of sound was determined as 1181.8 ± 1.4 m/s.

As for `CC#N` [acetonitrile] + CC(=O)CC(C)C, the speed of sound worked out at 1218.4 ± 1.3 m/s.

Still in this data set, the particulars now being: 313.15 K; 100 kPa; Liquid; Vibrating tube method; x2 = 0.
In the case of `CC(C)=O` [acetone] + CC(=O)CC(C)C, the mass density is given as 767 ± 3 kg/m3.

In the case of `C[S+](C)[O-]` [dimethyl sulfoxide] + CC(=O)CC(C)C, the mass density was 1080 ± 3 kg/m3.

Consider `C1CCCCC1` [cyclohexane] + CC(=O)CC(C)C, for which the mass density is given as 760 ± 3 kg/m3.

Turning to `CC#N` [acetonitrile] + CC(=O)CC(C)C, the mass density is 760 ± 3 kg/m3.

Assay in another data set: not given
The conditions noted are these: 293.15 K; 100 kPa; Liquid; Frequency=3 MHz; Single path-length method.
Regarding `CC#N` [acetonitrile], the speed of sound is 1299.7 ± 1.3 m/s.

For `CC(=O)CC(C)C` [4-methylpentan-2-one], the speed of sound is 1212.3 ± 1.6 m/s.

On to `CC(C)=O` [acetone], for which the speed of sound amounted to 1184.3 ± 1.4 m/s.

Turning to `C1CCCCC1` [cyclohexane], the speed of sound turned out to be 1279.5 ± 1.4 m/s.

For `C[S+](C)[O-]` [dimethyl sulfoxide], the speed of sound is given as 1504.7 ± 1.4 m/s.

The data set is the same for the next values; noted with them: 293.15 K; 100 kPa; Liquid; Vibrating tube method.
Take `CC#N` [acetonitrile]: the mass density was determined as 782 ± 3 kg/m3.

As for `CC(=O)CC(C)C` [4-methylpentan-2-one], the mass density was 801 ± 3 kg/m3 and 800 ± 3 kg/m3.

Take `CC(C)=O` [acetone]: the mass density was 790 ± 3 kg/m3.

As for `C1CCCCC1` [cyclohexane], the mass density is 779 ± 3 kg/m3 and 778 ± 3 kg/m3.

On to `C[S+](C)[O-]` [dimethyl sulfoxide], for which the mass density is 1100 ± 3 kg/m3.

The same data set, now with this note: 303.15 K; 100 kPa; Liquid; Frequency=3 MHz; Single path-length method.
As to `CC#N` [acetonitrile], the speed of sound worked out at 1258.8 ± 1.3 m/s.

Consider `CC(=O)CC(C)C` [4-methylpentan-2-one], for which the speed of sound is reported as 1171.4 ± 1.6 m/s.

With `CC(C)=O` [acetone], the speed of sound is on record as 1139.4 ± 1.4 m/s.

On to `C1CCCCC1` [cyclohexane], for which the speed of sound is given as 1230.1 ± 1.4 m/s.

Consider `C[S+](C)[O-]` [dimethyl sulfoxide], for which the speed of sound is on record as 1471 ± 1.4 m/s.

Staying with this data set, now noted: 303.15 K; 100 kPa; Liquid; Vibrating tube method.
Consider `CC#N` [acetonitrile], for which the mass density was 771 ± 3 kg/m3.

With `CC(=O)CC(C)C` [4-methylpentan-2-one], the mass density was found to be 792 ± 3 kg/m3.

Consider `CC(C)=O` [acetone], for which the mass density was determined as 779 ± 3 kg/m3.

Regarding `C1CCCCC1` [cyclohexane], the mass density is recorded as 769 ± 3 kg/m3.

For `C[S+](C)[O-]` [dimethyl sulfoxide], the mass density was determined as 1090 ± 3 kg/m3.

The same data set, now with this note: 313.15 K; 100 kPa; Liquid; Frequency=3 MHz; Single path-length method.
On to `CC#N` [acetonitrile], for which the speed of sound is given as 1218.4 ± 1.3 m/s.

As to `CC(=O)CC(C)C` [4-methylpentan-2-one], the speed of sound was determined as 1131.4 ± 1.6 m/s.

In the case of `CC(C)=O` [acetone], the speed of sound turned out to be 1094.6 ± 1.4 m/s.

For `C1CCCCC1` [cyclohexane], the speed of sound is 1181.8 ± 1.4 m/s.

As for `C[S+](C)[O-]` [dimethyl sulfoxide], the speed of sound came to 1437.4 ± 1.4 m/s.

The data set is the same for the next values; noted with them: 313.15 K; 100 kPa; Liquid; Vibrating tube method.
For `CC#N` [acetonitrile], the mass density was 760 ± 3 kg/m3.

Take `CC(=O)CC(C)C` [4-methylpentan-2-one]: the mass density amounted to 782 ± 3 kg/m3.

For `CC(C)=O` [acetone], the mass density worked out at 767 ± 3 kg/m3.

Turning to `C1CCCCC1` [cyclohexane], the mass density was 760 ± 3 kg/m3 and 759 ± 3 kg/m3.

As to `C[S+](C)[O-]` [dimethyl sulfoxide], the mass density stood at 1080 ± 3 kg/m3.

Usually refractive index stands for a measure of how strongly the sample bends light. For orientation: speed of sound means the propagation velocity of pressure waves in the medium. As usually defined, the mass density is mass per unit of volume.

The record behind these values is the NIST ThermoML archive (doi:10.1016/j.jct.2017.06.008).
